Patent US20250144067A1, “PERSONALIZED STARVATION THERAPY FOR CANCER” (Faeth Therapeutics, Inc., priority 2021, published 2025)
Counter-ions that a name gives are not always drawn.

What was measured:
[1] = tested on: NCI-H292 lung cancer cells; experiment: FDA drug screening, complete media vs cholesterol-free media without statin (TABLE 1); type: cell-based, human
[2] = tested on: NCI-H292 lung cancer cells; experiment: FDA drug screening, complete media vs cholesterol-free media with simvastatin (TABLE 2); type: cell-based, human; details: for Cholesterol-free media + simvastatin (0.04 μM) / Complete Media: NCI-H292 cells
[3] = NCI-H292 cells, cholesterol-free media without statin
[4] = complete vs cholesterol-free media; greater than 0 enhanced anti-cancer activity, about 0 neutral, below 0 antagonists
[5] = FDA drug library screen, cholesterol-free media with simvastatin 0.04 μM
[6] = FDA drug library screen, complete media
[7] = complete media vs cholesterol-free media + simvastatin (0.04 μM), >0 enhanced anti-cancer activity, about 0 neutral, <0 antagonist
[8] = Complete minus Cholesterol-free; >0 enhanced anti-cancer activity, about 0 neutral, <0 antagonist
[9] = NCI-H292 cells, cholesterol-free media without statin, FDA drug library screen
[10] = NCI-H292 cells, complete media, FDA drug library screen
[11] = cholesterol-free media with simvastatin 0.04 μM, FDA drug library screen (TABLE 2)
[12] = complete media, FDA drug library screen (TABLE 2)
[13] = complete media minus cholesterol-free media + simvastatin (0.04 μM), >0 enhanced anti-cancer activity, about 0 neutral, <0 antagonist
[14] = drug in cholesterol-free media with simvastatin 0.04 μM
[15] = Complete minus Cholesterol-free; greater than 0 enhanced anti-cancer activity, about 0 neutral, below 0 antagonist
[16] = NCI-H292 cells, FDA drug library screen, cholesterol-free media without statin
[17] = NCI-H292 cells, FDA drug library screen, complete media
[18] = cholesterol-free media with simvastatin 0.04 μM, cell growth value in FDA drug screen
[19] = complete media, cell growth value in FDA drug screen
[20] = complete media minus cholesterol-free media + simvastatin, >0 enhanced anti-cancer activity, about 0 neutral, <0 antagonist
[21] = FDA library drug in cholesterol-free media with simvastatin 0.04 μM
[22] = FDA library drug in complete media

C[C@]12CC[C@@H]3c4ccc(O)cc4CC[C@H]3[C@@H]1C[C@@H](O)[C@@H]2O [Estriol]
Cholesterol-free [1, 3]: 1.14 | Complete ([1]; NCI-H292 cells, complete media): 0.7448 | Difference [1, 4]: −0.40 | Cholesterol-free media + simvastatin (0.04 μM) [2, 5]: 0.9551 | Complete Media [2, 6]: 0.851 | Difference [2, 7]: −0.10

Nc1nc(O)c2ncn(COC(CO)CO)c2n1 [Ganciclovir]
Difference [1, 8]: 0.07 | Cholesterol-free [1, 9]: 0.8931 | Complete [1, 10]: 0.9638 | Cholesterol-free media + simvastatin (0.04 μM) [2, 11]: 0.88 | Complete Media [2, 12]: 0.8599 | Difference [2, 13]: −0.02

CCCCC(CC)COC(=O)CC(C(=O)OCC(CC)CCCC)S(=O)(=O)O (stereo not drawn) [Docusate (Sodium)]
Cholesterol-free [1, 3]: 1.285 | Complete ([1]; NCI-H292 cells, complete media): 0.839 | Difference [1, 4]: −0.45 | Cholesterol-free media + simvastatin (0.04 μM) [2, 14]: 1.08 | Complete Media ([2]; drug in complete media): 0.9061 | Difference [2, 7]: −0.17

COc1ccc(CCN(C)CCC[C@@](C#N)(c2ccc(OC)c(OC)c2)C(C)C)cc1OC.Cl [(S)-Verapamil (hydrochloride)]
Difference ([1]; Complete minus Cholesterol-free; […]): −0.20 | Cholesterol-free [1, 3]: 1.169 | Complete ([1]; NCI-H292 cells, complete media): 0.9711 | Cholesterol-free media + simvastatin (0.04 μM) [2, 14]: 1.086 | Complete Media ([2]; drug in complete media): 0.9249 | Difference ([2]; complete media vs cholesterol-free media + simvastatin (0.04 μM), […]): −0.16

Azatadine (dimaleate)
Difference [1, 15]: −0.16 | Cholesterol-free [1, 16]: 1.286 | Complete [1, 17]: 1.13 | Cholesterol-free media + simvastatin (0.04 μM) [2, 11]: 1.086 | Complete Media [2, 12]: 1.047 | Difference [2, 13]: −0.04

CC(=O)Oc1c(C)cc(OCC(O)CNC(C)C)c(C)c1C (stereo not drawn) [Metipranolol hydrochloride]
Difference [1, 8]: 0.05 | Cholesterol-free [1, 9]: 0.8441 | Complete [1, 10]: 0.893 | Cholesterol-free media + simvastatin (0.04 μM) [2, 18]: 0.8039 | Complete Media [2, 19]: 0.8617 | Difference [2, 20]: 0.06

CN1CCCN=C1/C=C/c1cccs1.O=C(O)c1cc2ccccc2c(Cc2c(O)c(C(=O)O)cc3ccccc23)c1O [Pyrantel (pamoate)]
Cholesterol-free [1, 9]: 1.079 | Complete [1, 10]: 1.203 | Difference ([1]; complete vs cholesterol-free media; >0 enhanced anti-cancer activity, about 0 neutral, <0 antagonist): 0.12 | Cholesterol-free media + simvastatin (0.04 μM) [2, 21]: 1.254 | Complete Media [2, 22]: 0.856 | Difference [2, 7]: −0.40

C=C1C[C@H]2[C@@H]3CCC4=CC(=O)CC[C@@H]4[C@H]3CC[C@]2(C)[C@@]1(OC(C)=O)C(C)=O [Nestoron]
Cholesterol-free [1, 3]: 1.481 | Complete ([1]; NCI-H292 cells, complete media): 1.095 | Difference ([1]; complete vs cholesterol-free media; […]): −0.39 | Cholesterol-free media + simvastatin (0.04 μM) [2, 11]: 0.9628 | Complete Media [2, 12]: 0.9132 | Difference ([2]; complete media minus cholesterol-free media + simvastatin (0.04 μM), […]): −0.05

CC(NCCc1ccc(O)cc1)C(O)c1ccc(O)cc1 (stereo not drawn) [Ritodrine (hydrochloride)]
Cholesterol-free [1, 3]: 1.435 | Complete ([1]; NCI-H292 cells, complete media): 0.972 | Difference [1, 4]: −0.46 | Cholesterol-free media + simvastatin (0.04 μM) [2, 5]: 1.064 | Complete Media [2, 6]: 0.9618 | Difference [2, 7]: −0.10

O=C(O)CSc1nnc(Br)n1-c1ccc(C2CC2)c2ccccc12 [Lesinurad]
Difference [1, 15]: −0.12 | Cholesterol-free [1, 16]: 1.092 | Complete [1, 17]: 0.9716 | Cholesterol-free media + simvastatin (0.04 μM) [2, 18]: 0.9083 | Complete Media [2, 19]: 0.9388 | Difference [2, 20]: 0.03

COC(=O)N[C@H](C(=O)N1CC2(CC2)C[C@H]1c1nc(-c2ccc3c(c2)C(F)(F)c2cc(-c4ccc5[nH]c([C@@H]6[C@H]7CC[C@H](C7)N6C(=O)[C@@H](NC(=O)OC)C(C)C)nc5c4)ccc2-3)c[nH]1)C(C)C [Ledipasvir]
Difference [1, 15]: −0.17 | Cholesterol-free [1, 16]: 0.5821 | Complete [1, 17]: 0.4142 | Cholesterol-free media + simvastatin (0.04 μM) [2, 21]: 1.189 | Complete Media [2, 22]: 0.6926 | Difference [2, 7]: −0.50

Cc1ccc(NC(=O)c2ccc(CN3CCN(C)CC3)cc2)cc1Nc1nc(-c2cccnc2)cs1 [Masitinib]
Difference [1, 8]: −0.19 | Cholesterol-free [1, 3]: 0.8775 | Complete ([1]; NCI-H292 cells, complete media): 0.6881 | Cholesterol-free media + simvastatin (0.04 μM) [2, 5]: 0.9334 | Complete Media [2, 6]: 0.8067 | Difference [2, 7]: −0.13
